Laboratory results published in patent publication US20250057808A1, “COMPOSITION COMPRISING BETA LACTAM FOR TREATING ALCOHOL DEPENDENCE AND ALCOHOL ASSOCIATED DISEASES OR CONDITIONS” (Temple University of the Commonwealth System of Higher …, priority 2023, published 2025).
“Also recorded” adds a separate entry of the source.

Tests used:
[1] = test system: PPAR-γ; experiment: Western blot PPAR-γ expression in liver; format: in vivo, P rats; settings: MC-100093 50 mg/kg or ceftriaxone 200 mg/kg i.p. 5 days; between all groups
Method: Western Blot assay was performed to measure changes in the expression of GLT-1, xCT, mGluR1, mGluR5, PPAR-α, PPARγ, GAPDH and β-tubulin in the NAc-core and NAc-shell as described in previous publications. A lysis buffer containing protease and phosphatase inhibitors was used to generate a homogenate of liver, Nac-core, and Nac-shell samples. The amount of protein was quantified using a detergent compatible protein assay (Bio-Rad, Hercules, CA, USA) for each sample. Samples were mixed with laemmli dye and loaded with equal amounts on polyacrylamide gels (10%), which separated the proteins using electrophoresis. After that, polyvinylidene difluoride (PVDF) membranes were used to transfer the proteins electrophoretically from the gels. Membranes were incubated in 5% free-fat milk in Tris-buffered saline with Tween-20 (TBST) for 30-60 minutes at room temperature. Membranes were then incubated with appropriate primary antibodies overnight at 4° C.: rabbit anti-GLT-1 (1:5000, Abcam, ab41621), rabbit anti-xCT (1:2000, Abcam, ab175186), rabbit anti-mGluR1 (1:1000, Abcam, ab82211), rabbit anti-mGluR5 (1:1000, Abcam, ab76316), rabbit anti-PPAR-α (1:1000, Abcam, ab24509), and rabbit anti-PPARγ (1:1000, Abcam, ab209350). […]

[2] = cited from earlier work
[3] = test system: mGluR5; experiment: Western blot mGluR5 expression in NAc-core and NAc-shell; format: in vivo, P rats; settings: MC-100093 50 mg/kg or ceftriaxone 200 mg/kg i.p. 5 days
Method: (§1) We used micro-punch procedure to dissect the subregions of the NAc such as NAc-core and NAc-shell as well as the subregions of prefrontal cortex such as infralimbic (IL) and prelimbic (PL) from the brain on day 6 after the last injection day. P rats were removed from the cage and rapidly euthanized by CO2 inhalation followed by rapid decapitation with a guillotine. Brains were isolated and immediately frozen on dry ice and stored at −80° C. The stereotaxic coordinates provided by Paxinos and colleague's rat brain stereotactic atlas was used to isolate NAc-core and NAc-shell using a cryostat apparatus (−20° C.), which then kept at −80° C. for later western blot analyses.
(§2) Western Blot assay was performed to measure changes in the expression of GLT-1, xCT, mGluR1, mGluR5, PPAR-α, PPARγ, GAPDH and β-tubulin in the NAc-core and NAc-shell as described in previous publications. A lysis buffer containing protease and phosphatase inhibitors was used to generate a homogenate of liver, Nac-core, and Nac-shell samples. The amount of protein was quantified using a detergent compatible protein assay (Bio-Rad, Hercules, CA, USA) for each sample. Samples were mixed with laemmli dye and loaded with equal amounts on polyacrylamide gels (10%), which separated the proteins using electrophoresis. After that, polyvinylidene difluoride (PVDF) membranes were used to transfer the proteins electrophoretically from the gels. Membranes were incubated in 5% free-fat milk in Tris-buffered saline with Tween-20 (TBST) for 30-60 minutes at room temperature. Membranes were then incubated with appropriate primary antibodies overnight at 4° C.: rabbit anti-GLT-1 (1:5000, Abcam, ab41621), rabbit anti-xCT (1:2000, Abcam, ab175186), rabbit anti-mGluR1 (1:1000, Abcam, ab82211), rabbit anti-mGluR5 (1:1000, Abcam, ab76316), rabbit anti-PPAR-α (1:1000, Abcam, ab24509), and rabbit anti-PPARγ (1:1000, Abcam, ab209350). Mouse anti-β-tubulin (1:1000; BioLegend) was used as a loading control antibody for the brain samples and rabbit anti-GAPDH (1:5000; cell signaling) was used as a loading control antibody for the liver samples. Membranes were washed five times on the next day with TBST followed by incubation with appropriate secondary antibody (1:5000) for 90 minutes at room temperature. Chemiluminescent reagents (Super Signal West Pico, Pierce Inc.) were used to detect the proteins using a GeneSys imaging system to develop the digitized blot images. Water-control group data were represented as 100% and all other values were expressed relative to control group to detect changes in the expression of the protein of interest in the brain and liver samples.
All statistical analyses were conducted with Graphpad Prism software, with p-values of 0.05 or less being statistically significant. […]

[4] = test system: GLT-1; experiment: Western blot GLT-1 expression in NAc-core, NAc-shell and liver (50 mg/kg study); format: in vivo, P rats; settings: MC-100093 50 mg/kg or ceftriaxone 200 mg/kg i.p. 5 days; for Protein expression of GLT-1 in the NAc-shell: vs Ethanol group
Method: as §1, §2
All statistical analyses were conducted with Graphpad Prism software, with p-values of 0.05 or less being statistically significant. We performed a two-way (mixed model) ANOVA followed by Bonferroni multiple comparison post-hoc test to analyze 24 h ethanol consumption, 24 h water consumption, and daily body weight. For the Western blot and oil red O staining analysis, we performed one-way ANOVA with Newman-Keuls as a post hoc multiple comparison test to measure differences between groups as a percentage (relative to control values).

[5] = Ethanol drinking, further studies with MC-100093 100 mg/kg; format: in vivo, Male P rats
Method: We used an ethanol drinking paradigm as described previously by Alhaddad, et al. (2014). Briefly, animals started the experimental drinking procedure at age of 90 days. The animals had five weeks of exposure to continuous three-bottle choice drinking, 0%, 15% and 30%, v/v ethanol in water, available concurrently. Daily measurement of ethanol intake was performed (g of ethanol intake/kg of body weight/day). We measured the baseline ethanol drinking by average the intake during the last three weeks. Three groups of P rats (n=8-9/group) exposed to the five weeks ethanol exposure. At week 6, rats in each group received daily intraperitoneal injection of either MC-100093 at dose of 50 mg/kg (Ethanol-MC group), Ceftriaxone at dose of 200 mg/kg (Ethanol-CEF group, which also serves as positive control), or equivolume of saline vehicle (Ethanol group) for five days. This paradigm results in pharmacologically relevant blood alcohol concentration (50-200 mg %). Following the criteria for the development of ethanol dependence, rats whose average ethanol intake <4 g/kg/day were excluded from the study. Beside the ethanol exposed groups, another group of P rats (n=8) exposed to only water and food throughout the exposure procedures (control group).
Further studies were conducted to investigate the impact of MC-100093 at higher dose (100 mg/kg, i.p.) on ethanol consumption and glutamate transporter 1 (GLT-1) expression in medial prefrontal cortex (mPFC) subregions such as prelimbic mPFC (PL) and infralimbic mPFC (IL). Male P rats (n=16) were divided in three groups: a) Control water group was exposed to water only for 5 weeks and received i.p. saline on Week 6 for 5 days; b) Saline group was exposed to free choice of ethanol (15% and 30% and water) for 5 weeks, and received saline (i.p.) on Week 6 for 5 days; and c) MC-100093 group was exposed to free choice of ethanol for 5 weeks and received MC-100093 (100 mg/kg/day, i.p.) for 5 days on Week 6.

In the case of `C[C@@H](O)[C@H]1C(=O)N[C@@H]1[C@@H](C)C(=O)N1CCN(C)CC1` [MC-100093], the “Protein expression of PPAR-γ in the liver” value [1] is given as “not changed significantly”, the Aqueous solubility [2] is given as “high aqueous solubility” and the “Protein expression of mGluR5 in the NAc-core” value ([3]; among all groups) is given as “non-significant difference; also recorded: no significant difference”. For the same molecule, the “Protein expression of mGluR5 in the NAc-shell” value ([3]; vs control or ethanol groups) was “no significant change in the expression of mGluR5; also recorded: significantly downregulated in ethanol group compared to control, Ethanol-MC (50 mg/kg), and Ethanol-CEF (200 mg/kg) groups; also recorded: normalizing levels of mGluR5”, the “Protein expression of GLT-1 in the liver” value [4] was “normalized GLT-1 level; also recorded: normalize the PPAR-α and GLT-1 levels in the liver” and the “Protein expression of GLT-1 in the NAc-core” value ([4]; among Control, Ethanol, Ethanol-MC, Ethanol-CEF) was “non-significant difference; also recorded: no significant difference”. For the same molecule, the “Protein expression of GLT-1 in the NAc-shell” value [4] was “normalized GLT-1 and xCT levels in the NAc-shell”, the “Protein expression of GLT-1 in the NAc-shell” value ([4]; listed as MC-100095) was “significantly increased” and the “Reduction in ethanol consumption as compared to control vehicle group” value ([5]; MC-100093 100 mg/kg i.p.) was “about 50%”. The “Body weight (grams)” value ([5]; MC-100093 100 mg/kg i.p. 5 days) was “no significant effects”, the “Water intake (mL/day)” value ([5]; MC-100093 100 mg/kg i.p. 5 days, vs ethanol/saline, 100 mg/kg) was “significant increase in water intake; also recorded: increase in water consumption was observed on Days 1-5” and the “Ethanol consumption (g/kg/24 hr)” value ([5]; male P rats, MC-100093 100 mg/kg i.p. 5 days on Week 6, vs ethanol/saline, 100 mg/kg) was “attenuated ethanol intake; also recorded: significantly reduced ethanol consumption on Day 1, 3, 4, and 5; also recorded: reduced ethanol intake on Days 2, 4, 5, 6; also recorded: effect similar to that of ceftriaxone”. The Ethanol preference ([5]; male P rats, MC-100093 100 mg/kg/day i.p. 5 days) was “decreased ethanol preference”.
